# In patent US11234939B2, “Dosage forms comprising a plasma kallikrein inhibitor” (KALVISTA PHARMACEUTICALS LIMITED, priority 2017, dated 2022):
# Columns and labels:
# [1] = Polymorph stability of Form 5; assay type: physicochemical; conditions: also on XRPD measurement
# [2] = Gravimetric Vapour Sorption (GVS) of Form 5; assay type: physicochemical; conditions: 0% to 95% RH
# Method: Form 5 is hygroscopic with a mass uptake of 23%, as determined by Gravimetric Vapour Sorption (GVS) studies. The GVS studies were performed using a Surface Measurement Systems Ltd. DVS-1 No Video, equipment #2126. The sample was loaded into a balance pan, typically 20-30 mg, and equilibrated at 0% RH. After the material was dried, the RH was increased with 10% per step for 1 hour per increment, ending at 95% RH. After completion of the sorption cycle, the sample was dried using the same method. The software used for data collection was DVSWin v3.01 No Video. Data analysis was performed using DVS Standard Analysis Suite v6.3.0 (Standard).
# [3] = test system: LPS-induced disseminated intravascular coagulation; conditions: cited from earlier work
# blood = blood contacted with the inhibitor; cited from earlier work
# [4] = test system: intrinsic pathway of coagulation; conditions: in vitro; cited from earlier work
# [5] = Gravimetric Vapour Sorption (GVS) of Form 1; assay type: physicochemical
# Method: Gravimetric Vapour Sorption (GVS) data were collected using the following method: Approximately 10 mg of sample was placed into a wire-mesh vapour sorption balance pan and loaded into an ‘IgaSorp’ vapour sorption balance (Hiden Analytical Instruments). The sample was then dried by maintaining a 0% humidity environment until no further weight change was recorded. Subsequently, the sample was then subjected to a ramping profile from 0-90% RH at 10% RH increments, maintaining the sample at each step until equilibration had been attained (99% step completion). Upon reaching equilibration, the % RH within the apparatus was ramped to the next step and the equilibration procedure repeated. After completion of the sorption cycle, the sample was then dried using the same procedure. The weight change during the sorption/desorption cycles were then monitored, allowing for the hygroscopic nature of the sample to be determined.
# [6] = Stability study of Form 1 on storage; assay type: physicochemical; conditions: for Change in XRPD diffractogram on storage: after 1 month and 3 months
# Method: A sample of Form 1 was packed in double polyethylene bags and sealed in a HDPE bottle and stored at conditions of 25° C./60% RH. The sample was reanalysed after 1 month and 3 months by XRPD (using Method B). No change in the XRPD diffractogram was observed when the sample was stored at 25° C./60% RH after either 1 month or 3 months.
# Further tests on the sample of Form 1 stored at 25° C./60% RH were carried out as described in Table 1:
# A second sample of Form 1 was packed in double polyethylene bags and sealed in a HDPE bottle and stored under accelerated stability conditions of 40° C./75% RH. The sample was reanalysed after 1 month and 3 months by XRPD (using Method B). No change in the XRPD diffractogram was observed when the sample was stored at 40° C./75% RH after either 1 month or 3 months.
# Further tests on the sample of Form 1 stored at 40° C./75% RH were carried out as described in Table 2: […]
# [7] = Visual Aqueous Solubility; assay type: physicochemical; conditions: thermodynamic from solid; 10 mg in 20 mL water
# Method: Form 1 (10 mg) was weighed into a glass vial and water was added in […] up to 3 mL then 1 mL portions thereafter. Solubility was assessed visually following a brief period of equilibration.
# Slurry Studies = assay type: physicochemical; conditions: 90/10 IPA/water, ambient temperature, 72 hrs
# Method: Form 1 (20 mg) was suspended in 90/10 IPA/water […] and shaken at ambient temperature for 72 hrs. The supernatant was evaporated rather than filtered due to the small volume and the resulting solid was examined by XRPD (FIG. 5).
# Human KLK1 = target: T1, Human KLK1 (Homo sapiens, UniProt P06870); experiment: Determination of the IC50 for KLK1; assay type: biochemical; conditions: 25° C., substrate H-DVal-Leu-Arg-AFC
# T1 construct: purchased Callbiochem
# Method: (§1) KLK1 inhibitory activity in vitro was determined using standard published methods (see e.g. Johansen et al., Int. J. Tiss. Reac. 1986, 8, 185; Shori et al., Biochem. Pharmacol., 1992, 43, 1209; Stürzebecher et al., Biol. Chem. Hoppe-Seyler, 1992, 373, 1025). Human KLK1 (Callbiochem) was incubated at 25° C. with the fluorogenic substrate H-DVal-Leu-Arg-AFC and various concentrations of the test compound. Residual enzyme activity (initial rate of reaction) was determined by measuring the change in optical absorbance at 410 nm and the IC50 value for the test compound was determined.
# [8] = Pharmacokinetic study, single oral dose in rats; assay type: in vivo; conditions: male, Sprague-Dawley, plasma; rat, po 10.1 mg/kg, vehicle TPGS solution (20% aq. w/v)
# Method: A pharmacokinetic study of the compound of Formula A was performed to assess the pharmacokinetics following a single oral dose in male Sprague-Dawley rats. Two rats were given a single po dose of 5 mL/kg of a nominal 2 mg/mL (10 mg/kg) composition of test compound in vehicle. Following dosing, blood samples were collected over a period of […]. Sample times were 5, 15 and 30 minutes then 1, 2, 4, 6, 8 and 12 hrs. Following collection, blood samples were centrifuged and the plasma fraction analysed for concentration of test compound by LCMS.
# Human FXIa = target: T2, Human FXIa (Homo sapiens, UniProt P03951); experiment: Determination of the % Inhibition for FXIa; assay type: biochemical; conditions: 40 μM test compound, 25° C.
# T2 construct: purchased Enzyme Research Laboratories
# Method: as §1, with “FXIa” for “KLK1”, “Sturzebecher” for “Stürzebecher”, “FXIa (Enzyme Research Laboratories)” for “KLK1 (Callbiochem)”, “Z-Gly-Pro-Arg-AFC” for “H-DVal-Leu-Arg-AFC”, “40 μM” for “various concentrations”, “nm.” for “nm and the IC50 value for the test compound was determined.”
# rats = conditions: systemic administration; cited from earlier work
# T2 sequence (P03951 388-625 limits assumed): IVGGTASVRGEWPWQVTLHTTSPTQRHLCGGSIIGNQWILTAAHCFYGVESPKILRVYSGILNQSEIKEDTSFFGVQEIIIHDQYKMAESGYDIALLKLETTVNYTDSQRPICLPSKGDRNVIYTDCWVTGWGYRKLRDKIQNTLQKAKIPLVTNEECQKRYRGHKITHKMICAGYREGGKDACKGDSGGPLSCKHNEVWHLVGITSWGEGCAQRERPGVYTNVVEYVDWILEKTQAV
# T2 sequence (P03951 19-387 partner limits assumed): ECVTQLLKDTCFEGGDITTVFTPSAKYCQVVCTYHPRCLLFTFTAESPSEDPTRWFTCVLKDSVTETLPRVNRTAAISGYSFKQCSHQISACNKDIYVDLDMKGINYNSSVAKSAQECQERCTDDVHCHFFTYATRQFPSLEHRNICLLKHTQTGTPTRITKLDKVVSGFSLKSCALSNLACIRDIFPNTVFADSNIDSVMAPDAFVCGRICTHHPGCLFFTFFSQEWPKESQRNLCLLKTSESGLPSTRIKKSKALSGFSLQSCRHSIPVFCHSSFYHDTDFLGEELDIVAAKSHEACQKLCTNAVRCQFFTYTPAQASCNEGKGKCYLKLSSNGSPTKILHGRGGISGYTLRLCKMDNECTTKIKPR
# T1 sequence (P06870 25-262): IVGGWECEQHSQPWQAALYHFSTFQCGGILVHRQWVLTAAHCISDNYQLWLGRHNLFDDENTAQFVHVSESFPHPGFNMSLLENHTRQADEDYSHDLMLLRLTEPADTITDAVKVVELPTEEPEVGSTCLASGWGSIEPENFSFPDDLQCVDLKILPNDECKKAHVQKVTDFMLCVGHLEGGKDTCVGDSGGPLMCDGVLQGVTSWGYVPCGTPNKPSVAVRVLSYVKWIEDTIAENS
compound,measurement,setting,value
"COCc1nn(Cc2ccc(Cn3ccccc3=O)cc2)cc1C(=O)NCc1nccc(OC)c1F [Form 5, N-[(3-Fluoro-4-methoxypyridin-2-yl)methyl]-3-(methoxymethyl)-1-({4-[(2-oxopyridin-1-yl)methyl]phenyl}methyl)pyrazole-4-carboxamide]",Polymorph conversion over time,[1],converts into polymorph Form 3
same,GVS (mass uptake %),[2],23%
Cl.NCC1CCC(C(=O)N[C@@H](Cc2ccccc2)C(=O)Nc2ccc(CC(=O)O)cc2)CC1 (some centres unmarked) [PKSI-527],Decrease in platelet count and fibrinogen level and increase in FDP level,[3],significantly suppressed
Ecallantide,Activated clotting time (ACT),blood,increase
same,Contact activated induced coagulation,[4],delay
"COCc1nn(Cc2ccc(Cn3ccccc3=O)cc2)cc1C(=O)NCc1nccc(OC)c1F [Form 1, N-[(3-Fluoro-4-methoxypyridin-2-yl)methyl]-3-(methoxymethyl)-1-({4-[(2-oxopyridin-1-yl)methyl]phenyl}methyl)pyrazole-4-carboxamide]",%-Wt(dry basis),"[5]; adsorption, 0.0335 %-RH",0.04722%
same,%-Wt(dry basis),"[5]; adsorption, 9.9791 %-RH",0.23%
same,%-Wt(dry basis),"[5]; adsorption, 20.0169 %-RH",0.3541%
same,%-Wt(dry basis),"[5]; adsorption, 30.0091 %-RH",0.7126%
same,%-Wt(dry basis),"[5]; adsorption, 39.9998 %-RH",0.825%
same,%-Wt(dry basis),"[5]; adsorption, 49.991 %-RH",1.207%
same,%-Wt(dry basis),"[5]; adsorption, 59.9808 %-RH",1.699%
same,%-Wt(dry basis),"[5]; adsorption, 70.0195 %-RH",1.912%
same,%-Wt(dry basis),"[5]; adsorption, 80.0136 %-RH",2.186%
same,%-Wt(dry basis),"[5]; adsorption, 90.0039 %-RH",3.226%
same,%-Wt(dry basis),"[5]; desorption, 0.0335 %-RH",0.000368%
same,%-Wt(dry basis),"[5]; desorption, 4.9801 %-RH",0.1269%
same,%-Wt(dry basis),"[5]; desorption, 15.0203 %-RH",0.5017%
same,%-Wt(dry basis),"[5]; desorption, 25.0135 %-RH",0.7008%
same,%-Wt(dry basis),"[5]; desorption, 35.0052 %-RH",1.017%
same,%-Wt(dry basis),"[5]; desorption, 44.9954 %-RH",1.525%
same,%-Wt(dry basis),"[5]; desorption, 54.9837 %-RH",1.685%
same,%-Wt(dry basis),"[5]; desorption, 64.9759 %-RH",1.865%
same,%-Wt(dry basis),"[5]; desorption, 75.0151 %-RH",2.116%
same,%-Wt(dry basis),"[5]; desorption, 85.0063 %-RH",2.547%
same,Hygroscopicity (GVS),[5]; up to 70% relative humidity,absence of significant hygroscopicity
same,Appearance,"[6]; 25° C./60% RH, 1 month",Off-white
same,Assay by HPLC (on an anhydrous and solvent free basis),"[6]; 25° C./60% RH, 1 month",99.5 % w/w
same,DSC Tonset,"[6]; 25° C./60% RH, 1 month",151.1 °C
same,DSC Tpeak,"[6]; 25° C./60% RH, 1 month",152.4 °C
same,HPLC assay (on an as is basis),"[6]; 25° C./60% RH, 1 month",99.4 % w/w
same,Purity by HPLC,"[6]; 25° C./60% RH, 1 month",99.62 area %
same,Solid form of compound A by XRPD,"[6]; 25° C./60% RH, 1 month",Conforms
same,Total impurities,"[6]; 25° C./60% RH, 1 month",0.38 area %
same,Water by Karl Fischer analysis,"[6]; 25° C./60% RH, 1 month",<0.1 % w/w
same,Appearance,"[6]; 25° C./60% RH, 3 months",Off-white
same,Assay by HPLC (on an anhydrous and solvent free basis),"[6]; 25° C./60% RH, 3 months",99.6 % w/w
same,DSC Tonset,"[6]; 25° C./60% RH, 3 months",150.8 °C
same,DSC Tpeak,"[6]; 25° C./60% RH, 3 months",152.2 °C
same,HPLC assay (on an as is basis),"[6]; 25° C./60% RH, 3 months",99.5 % w/w
same,Purity by HPLC,"[6]; 25° C./60% RH, 3 months",99.70 area %
same,Solid form of compound A by XRPD,"[6]; 25° C./60% RH, 3 months",Conforms
same,Total impurities,"[6]; 25° C./60% RH, 3 months",0.30 area %
same,Water by Karl Fischer analysis,"[6]; 25° C./60% RH, 3 months",<0.1 % w/w
same,Appearance,"[6]; 25° C./60% RH, Initial",Off-white
same,Assay by HPLC (on an anhydrous and solvent free basis),"[6]; 25° C./60% RH, Initial",101.0 % w/w
same,DSC Tonset,"[6]; 25° C./60% RH, Initial",151.3 °C
same,DSC Tpeak,"[6]; 25° C./60% RH, Initial",152.9 °C
same,HPLC assay (on an as is basis),"[6]; 25° C./60% RH, Initial",100.9 % w/w
same,Purity by HPLC,"[6]; 25° C./60% RH, Initial",99.70 area %
same,Solid form of compound A by XRPD,"[6]; 25° C./60% RH, Initial",Conforms
same,Total impurities,"[6]; 25° C./60% RH, Initial",0.30 area %
same,Water by Karl Fischer analysis,"[6]; 25° C./60% RH, Initial",<0.1 % w/w
same,Change in XRPD diffractogram on storage,[6]; 25° C./60% RH,no change
same,Appearance,"[6]; 40° C./75% RH, 1 month",Off-white
same,Assay by HPLC (on an anhydrous and solvent free basis),"[6]; 40° C./75% RH, 1 month",99.5 % w/w
same,DSC Tonset,"[6]; 40° C./75% RH, 1 month",151.1 °C
same,DSC Tpeak,"[6]; 40° C./75% RH, 1 month",152.3 °C
same,HPLC assay (on an as is basis),"[6]; 40° C./75% RH, 1 month",99.4 % w/w
same,Purity by HPLC,"[6]; 40° C./75% RH, 1 month",99.57 area %
same,Solid form of compound A by XRPD,"[6]; 40° C./75% RH, 1 month",Conforms to
same,Total impurities,"[6]; 40° C./75% RH, 1 month",0.43 area %
same,Water by Karl Fischer analysis,"[6]; 40° C./75% RH, 1 month",<0.1 % w/w
same,Appearance,"[6]; 40° C./75% RH, 3 months",Off-white
same,Assay by HPLC (on an anhydrous and solvent free basis),"[6]; 40° C./75% RH, 3 months",100.0 % w/w
same,DSC Tonset,"[6]; 40° C./75% RH, 3 months",150.6 °C
same,DSC Tpeak,"[6]; 40° C./75% RH, 3 months",152.5 °C
same,HPLC assay (on an as is basis),"[6]; 40° C./75% RH, 3 months",99.9 % w/w
same,Purity by HPLC,"[6]; 40° C./75% RH, 3 months",99.71 area %
same,Solid form of compound A by XRPD,"[6]; 40° C./75% RH, 3 months",Conforms to
same,Total impurities,"[6]; 40° C./75% RH, 3 months",0.29 area %
same,Water by Karl Fischer analysis,"[6]; 40° C./75% RH, 3 months",0.1 % w/w
same,Appearance,"[6]; 40° C./75% RH, Initial",Off-white
same,Assay by HPLC (on an anhydrous and solvent free basis),"[6]; 40° C./75% RH, Initial",101.0 % w/w
same,DSC Tonset,"[6]; 40° C./75% RH, Initial",151.3 °C
same,DSC Tpeak,"[6]; 40° C./75% RH, Initial",152.9 °C
same,HPLC assay (on an as is basis),"[6]; 40° C./75% RH, Initial",100.9 % w/w
same,Purity by HPLC,"[6]; 40° C./75% RH, Initial",99.70 area %
same,Solid form of compound A by XRPD,"[6]; 40° C./75% RH, Initial",Conforms to
same,Total impurities,"[6]; 40° C./75% RH, Initial",0.30 area %
same,Water by Karl Fischer analysis,"[6]; 40° C./75% RH, Initial",<0.1 % w/w
same,Change in XRPD diffractogram on storage,[6]; 40° C./75% RH,no change
same,solubility,[7],< 500 µg/mL
same,XRPD after slurry compared with FIG. 1a,Slurry Studies,tendency to form hydrate(s)
"COCc1nn(Cc2ccc(Cn3ccccc3=O)cc2)cc1C(=O)NCc1nccc(OC)c1F [compound of Formula A, N-[(3-fluoro-4-methoxypyridin-2-yl)methyl]-3-(methoxymethyl)-1-({4-[(2-oxopyridin-1-yl)methyl]phenyl}methyl)pyrazole-4-carboxamide]",IC50,Human KLK1,> 40 µM
same,Cmax,[8],1940 ng/mL
same,Tmax,[8],1.17 h
same,inhibition at 40 µM,Human FXIa,0%
N=C(N)c1ccc(CNC(=O)c2cnn(Cc3ccccc3)c2)cc1 [ASP-440],Hematoma expansion,rats,reduced
